Biological target: Endothelial lipase (EL) (Homo sapiens (Human), UniProt Q9Y5X9)
Assay: Endothelial lipase (EL) enzymatic assay with fluorescent substrate A10070 in DMPG vesicles
Format: biochemical
Outline: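 Substrate A10070 sits in sonicated DMPG vesicles at 0.11 mole fraction. Lipase and compound preincubated 30 min, 37° C, in HEPES pH 8.0 buffer with CaCl2.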

Sequence of Endothelial lipase (EL) (Q9Y5X9 21-500): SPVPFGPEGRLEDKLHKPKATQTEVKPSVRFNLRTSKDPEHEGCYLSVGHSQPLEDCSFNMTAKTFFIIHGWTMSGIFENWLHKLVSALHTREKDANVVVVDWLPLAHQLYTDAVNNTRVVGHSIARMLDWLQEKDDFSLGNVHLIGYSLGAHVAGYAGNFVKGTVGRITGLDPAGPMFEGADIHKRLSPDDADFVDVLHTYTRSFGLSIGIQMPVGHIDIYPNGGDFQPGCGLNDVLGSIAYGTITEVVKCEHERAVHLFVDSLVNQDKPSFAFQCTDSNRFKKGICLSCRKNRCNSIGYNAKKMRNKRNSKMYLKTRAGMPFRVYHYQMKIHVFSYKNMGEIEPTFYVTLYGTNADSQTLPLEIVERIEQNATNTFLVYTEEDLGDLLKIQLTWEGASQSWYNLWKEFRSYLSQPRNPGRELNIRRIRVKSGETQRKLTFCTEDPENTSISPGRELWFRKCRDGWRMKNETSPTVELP

Row | SMILES | IC50
1 | COCCS(=O)(=O)C(C(=O)NCC(=O)NC1CC1)c1nc2cc(-c3ccc4c(c3)CC(=O)N4)c(F)cc2s1 (stereo not shown) [Example 349, N-[(cyclopropyl-carbamoyl)methyl]-2-[6-fluoro-5-(2-oxo-2,3-dihydro-1H-indol-5-yl)-1,3-benzothiazol-2-yl]-2-(2-methoxyethane-sulfonyl)acetamide] | 42 nM
2 | COCCS(=O)(=O)C(C(=O)NCC(=O)NC1CC1)c1nc2cc(-c3ccc4c(c3)C(=O)NC4)c(F)cc2s1 (stereo not shown) [Example 350, N-[(cyclopropyl-carbamoyl)methyl]-2-[6-fluoro-5-(3-oxo-2,3-dihydro-1H-isoindol-5-yl)-1,3-benzothiazol-2-yl]-2-(2-methoxyethane-sulfonyl)acetamide] | 18 nM
3 | COCCS(=O)(=O)C(C(=O)NCC(=O)NC1CC1)c1nc2cc(-c3cnnc(C)c3)c(F)cc2s1 (stereo not shown) [Example 351, N-[(cyclopropyl-carbamoyl)methyl]-2-[6-fluoro-5-(6-methylpyridazin-4-yl)-1,3-benzothiazol-2-yl]-2-(2-methoxyethane-sulfonyl)acetamide] | 36 nM
4 | COCCS(=O)(=O)C(C(=O)NCC(=O)NCCOC(C)C)c1nc2cc(-c3ccn(C)c(=O)c3)c(F)cc2s1 (stereo not shown) [Example 353, 2-[6-fluoro-5-(1-methyl-2-oxo-1,2-dihydropyridin-4-yl)-1,3-benzothiazol-2-yl]-2-(2-methoxyethane-sulfonyl)-N-({[2-(propan-2-yloxy)ethyl]carbamoyl}methyl)acetamide] | 34 nM
5 | COCCS(=O)(=O)C(C(=O)NCC(=O)NCCOC(C)C)c1nc2cc(-c3ccc4c(c3)CNC4=O)c(F)cc2s1 (stereo not shown) [Example 354, 2-[6-fluoro-5-(1-oxo-2,3-dihydro-1H-isoindol-5-yl)-1,3-benzothiazol-2-yl]-2-(2-methoxyethane-sulfonyl)-N-({[2-(propan-2-yloxy)ethyl]carbamoyl}methyl)acetamide] | 24 nM
6 | COCCS(=O)(=O)C(C(=O)NCC(=O)NCCOC(C)C)c1nc2cc(-c3ccc(=O)n(C)c3)c(F)cc2s1 (stereo not shown) [Example 355, 2-[6-fluoro-5-(1-methyl-6-oxo-1,6-dihydropyridin-3-yl)-1,3-benzothiazol-2-yl]-2-(2-methoxyethane-sulfonyl)-N-({[2-(propan-2-yloxy)ethyl]carbamoyl}methyl)acetamide] | 36 nM
7 | COCCS(=O)(=O)C(C(=O)NCC(=O)NCCOC(C)C)c1nc2cc(-c3cnc(C)nc3)c(F)cc2s1 (stereo not shown) [Example 356, 2-[6-fluoro-5-(2-methylpyrimidin-5-yl)-1,3-benzothiazol-2-yl]-2-(2-methoxyethane-sulfonyl)-N-({[2-(propan-2-yloxy)ethyl]carbamoyl}methyl)acetamide] | 55 nM
8 | COCCS(=O)(=O)C(C(=O)NCC(=O)NCCOC(C)C)c1nc2cc(-c3ccnn3C)c(F)cc2s1 (stereo not shown) [Example 357, 2-[6-fluoro-5-(1-methyl-1H-pyrazol-5-yl)-1,3-benzothiazol-2-yl]-2-(2-methoxyethane-sulfonyl)-N-({[2-(propan-2-yloxy)ethyl]carbamoyl}methyl)acetamide] | 49 nM
9 | COCCS(=O)(=O)C(C(=O)NCC(=O)NCCOC(C)C)c1nc2cc(-c3cnnc(C)c3)c(F)cc2s1 (stereo not shown) [Example 358, 2-[6-fluoro-5-(6-methylpyridazin-4-yl)-1,3-benzothiazol-2-yl]-2-(2-methoxyethane-sulfonyl)-N-({[2-(propan-2-yloxy)ethyl]carbamoyl}methyl)acetamide] | 60 nM
10 | CC(C)OCCNC(=O)CNC(=O)C(c1nc2cc(-c3ccc(F)nc3)c(F)cc2s1)S(C)(=O)=O (stereo not shown) [Example 360, 2-[6-fluoro-5-(6-fluoropyridin-3-yl)-1,3-benzothiazol-2-yl]-2-methanesulfonyl-N-({[2-(propan-2-yloxy)ethyl]carbamoyl}methyl)acetamide] | 21 nM
11 | Cc1cc(-c2cc3nc(C(C(=O)NCC(=O)NC4CC4)S(C)(=O)=O)sc3cc2F)cnn1 (stereo not shown) [Example 361, N-[(cyclopropyl-carbamoyl)methyl]-2-[6-fluoro-5-(6-methylpyridazin-4-yl)-1,3-benzothiazol-2-yl]-2-methanesulfonyl-acetamide] | 26 nM
12 | Cc1cc(-c2cc3nc(C(C(=O)NCC(=O)NCCOC(C)C)S(C)(=O)=O)sc3cc2F)cnn1 (stereo not shown) [Example 362, 2-[6-fluoro-5-(6-methylpyridazin-4-yl)-1,3-benzothiazol-2-yl]-2-methanesulfonyl-N-({[2-(propan-2-yloxy)ethyl]carbamoyl}methyl)acetamide] | 25 nM
13 | CS(=O)(=O)C(C(=O)NCC(=O)NC1CC1)c1nc2cc(-c3ccc4c(c3)NC(=O)C4)c(F)cc2s1 (stereo not shown) [Example 365, N-[(cyclopropyl-carbamoyl)methyl]-2-[6-fluoro-5-(2-oxo-2,3-dihydro-1H-indol-6-yl)-1,3-benzothiazol-2-yl]-2-methanesulfonyl-acetamide] | 36 nM
14 | COc1ccc(-c2cc3nc(C(C(=O)NCC(=O)NC4CC4)S(C)(=O)=O)sc3cc2F)cn1 (stereo not shown) [Example 366, N-[(cyclopropyl-carbamoyl)methyl]-2-[6-fluoro-5-(6-methoxypyridin-3-yl)-1,3-benzothiazol-2-yl]-2-methanesulfonyl-acetamide] | 30 nM
15 | CS(=O)(=O)C(C(=O)NCC(=O)NC1CC1)c1nc2cc(-c3cccnc3F)c(F)cc2s1 (stereo not shown) [Example 367, N-[(cyclopropyl-carbamoyl)methyl]-2-[6-fluoro-5-(2-fluoropyridin-3-yl)-1,3-benzothiazol-2-yl]-2-methanesulfonyl-acetamide] | 25 nM

Continued, values first:

Row | IC50 | SMILES
16 | 18 nM | COCCS(=O)(=O)C(C(=O)NCC(=O)NC1CC1)c1nc2cc(-c3ccc4[nH]c(=O)ccc4c3)c(F)cc2s1 (stereo not shown) [Example 347, N-[(cyclopropyl-carbamoyl)methyl]-2-[6-fluoro-5-(2-oxo-1,2-dihydroquinolin-6-yl)-1,3-benzothiazol-2-yl]-2-(2-methoxyethane-sulfonyl)acetamide]
17 | 10 nM | COCCS(=O)(=O)C(C(=O)NCC(=O)NC1CC1)c1nc2cc(-c3cnc(C4CC4)nc3)c(F)cc2s1 (stereo not shown) [Example 348, N-[(cyclopropyl-carbamoyl)methyl]-2-[5-(2-cyclopropyl-pyrimidin-5-yl)-6-fluoro-1,3-benzothiazol-2-yl]-2-(2-methoxyethane-sulfonyl)acetamide]
18 | 14 nM | COCCS(=O)(=O)C(C(=O)NCC(=O)NCCOC(C)C)c1nc2cc(-c3ccc(F)nc3)c(F)cc2s1 (stereo not shown) [Example 352, 2-[6-fluoro-5-(6-fluoropyridin-3-yl)-1,3-benzothiazol-2-yl]-2-(2-methoxyethane-sulfonyl)-N-({[2-(propan-2-yloxy)ethyl]carbamoyl}methyl)acetamide]
19 | 7 nM | CS(=O)(=O)C(C(=O)NCC(=O)NC1CC1)c1nc2cc(-c3ccc(F)nc3)c(F)cc2s1 (stereo not shown) [Example 359, N-[(cyclopropyl-carbamoyl)methyl]-2-[6-fluoro-5-(6-fluoropyridin-3-yl)-1,3-benzothiazol-2-yl]-2-methanesulfonyl-acetamide]
20 | 11 nM | COC(=O)Nc1ccc(-c2cc3nc(C(C(=O)NCC(=O)NCCOC(C)C)S(C)(=O)=O)sc3cc2F)cc1F (stereo not shown) [Example 363, methyl N-[2-fluoro-4-(6-fluoro-2-{methanesulfonyl [({[2-(propan-2-yloxy)ethyl]carbamoyl}methyl)carbamoyl]methyl}-1,3-benzothiazol-5-yl)phenyl]carbamate]
21 | 12 nM | COc1cc(-c2cc3nc(C(C(=O)NCC(=O)NC4CC4)S(C)(=O)=O)sc3cc2F)ccn1 (stereo not shown) [Example 364, N-[(cyclopropyl-carbamoyl)methyl]-2-[6-fluoro-5-(2-methoxypyridin-4-yl)-1,3-benzothiazol-2-yl]-2-methanesulfonyl-acetamide]
22 | 17 nM | COc1nccc(-c2cc3nc(C(C(=O)NCC(=O)NC4CC4)S(C)(=O)=O)sc3cc2F)c1F (stereo not shown) [Example 368, N-[(cyclopropyl-carbamoyl)methyl]-2-[6-fluoro-5-(3-fluoro-2-methoxypyridin-4-yl)-1,3-benzothiazol-2-yl]-2-methanesulfonyl-acetamide]
23 | 16 nM | Cn1cnc2ccc(-c3cc4sc(C(C(=O)NCC(=O)NC5CC5)S(C)(=O)=O)nc4cc3F)cc21 (stereo not shown) [Example 369, N-[(cyclopropyl-carbamoyl)methyl]-2-[5-fluoro-6-(1-methyl-1H-1,3-benzodiazol-6-yl)-1,3-benzothiazol-2-yl]-2-methanesulfonyl-acetamide]
24 | 5 nM | CS(=O)(=O)C(C(=O)NCC(=O)NC1CC1)c1nc2cc(F)c(-c3ccc4c(c3)CC(=O)N4)cc2s1 (stereo not shown) [Example 370, N-[(cyclopropyl-carbamoyl)methyl]-2-[5-fluoro-6-(2-oxo-2,3-dihydro-1H-indol-5-yl)-1,3-benzothiazol-2-yl]-2-methanesulfonyl-acetamide]
25 | 5 nM | CS(=O)(=O)C(C(=O)NCC(=O)NC1CC1)c1nc2cc(F)c(-c3cccc4c3CC(=O)N4)cc2s1 (stereo not shown) [Example 371, N-[(cyclopropyl-carbamoyl)methyl]-2-[5-fluoro-6-(2-oxo-2,3-dihydro-1H-indol-4-yl)-1,3-benzothiazol-2-yl]-2-methanesulfonyl-acetamide]
26 | 6 nM | CS(=O)(=O)C(C(=O)NCC(=O)NC1CC1)c1nc2cc(F)c(-c3ccc4c(c3)NC(=O)C4)cc2s1 (stereo not shown) [Example 372, N-[(cyclopropyl-carbamoyl)methyl]-2-[5-fluoro-6-(2-oxo-2,3-dihydro-1H-indol-6-yl)-1,3-benzothiazol-2-yl]-2-methanesulfonyl-acetamide]
27 | 2 nM | CS(=O)(=O)C(C(=O)NCC(=O)NC1CC1)c1nc2ccc(-c3ccc(-n4cccn4)cc3)cc2s1 (stereo not shown) [Example 373, N-[(cyclopropyl-carbamoyl)methyl]-2-methanesulfonyl-2-{6-[4-(1H-pyrazol-1-yl)phenyl]-1,3-benzothiazol-2-yl}acetamide]
28 | 9 nM | CN1C(=O)Cc2cc(-c3cc4sc(C(C(=O)NCC(=O)NC5CC5)S(C)(=O)=O)nc4cc3F)ccc21 (stereo not shown) [Example 374, N-[(cyclopropyl-carbamoyl)methyl]-2-[5-fluoro-6-(1-methyl-2-oxo-2,3-dihydro-1H-indol-5-yl)-1,3-benzothiazol-2-yl]-2-methanesulfonyl-acetamide]

— patent US10173991B2, “Sulfone amide linked benzothiazole inhibitors of endothelial lipase” (BRISTOL-MYERS SQUIBB COMPANY, priority 2014, dated 2019)
